The structures appear in SMILES notation.

One assay concerns mice injected with CTX. As to the kind of experiment: T-lymphocyte test. Format: in vivo. The conditions noted are these: positive control: CTX 10 mg/kg/d then water p.o. Here is the method:
Mice, body weight of 18-22 g, were randomly divided into a blank control group, positive control group, a higher dose group and a lower dose group, with 10 mice per group. The mice in the treated groups were injected with CTX at a dose of 10 mg/kg/d, and then treated with proteoglycan extracts of Spirulina via p.o., at the same dose as above. The mice in the positive control group were treated with CTX at a dose of 10 mg/kg/d, and then treated with water via p.o. the mice in the control group only were treated with water via p.o. after the treatment was continuously taken for 10 days, the treatment was stopped for 2 days. Blood was harvested from eye sockets of the mice for lymphocyte slices. After incubation and dyeing, T-lymphocyte percentage was determined.

Assay [1] concerns the target T1, PTK picked up from A431 cell containing the EGFR (Homo sapiens, UniProt P00533).
T1 construct: we used A431 cell containing the EGFR for picking up PTK; endogenous in cells; host or cells: A431 cells
As to the kind of experiment: Phosphorylation of protein tyrosine kinase (PTK). Format: biochemical. The source says:
Epidermal growth factor receptor (EGFR), a PTK of receptor type, is a single-stranded trans-membrane glycoprotein consisting of 1186 amino acids, whose molecular weight is […], and exists extensively on the epithelial membrane of the mammals. The C end of the EGFR can recognize and activate many cellular substrates after phosphorylated, then effect on metabolization, growth and carcinogenesis of a cell. […] In our research, we used A431 cell containing the EGFR for picking up PTK, so as to observe the effect of the proteoglycan extract of spirulina on phosphorylation of PTK.

T1 sequence (P00533 25-1210): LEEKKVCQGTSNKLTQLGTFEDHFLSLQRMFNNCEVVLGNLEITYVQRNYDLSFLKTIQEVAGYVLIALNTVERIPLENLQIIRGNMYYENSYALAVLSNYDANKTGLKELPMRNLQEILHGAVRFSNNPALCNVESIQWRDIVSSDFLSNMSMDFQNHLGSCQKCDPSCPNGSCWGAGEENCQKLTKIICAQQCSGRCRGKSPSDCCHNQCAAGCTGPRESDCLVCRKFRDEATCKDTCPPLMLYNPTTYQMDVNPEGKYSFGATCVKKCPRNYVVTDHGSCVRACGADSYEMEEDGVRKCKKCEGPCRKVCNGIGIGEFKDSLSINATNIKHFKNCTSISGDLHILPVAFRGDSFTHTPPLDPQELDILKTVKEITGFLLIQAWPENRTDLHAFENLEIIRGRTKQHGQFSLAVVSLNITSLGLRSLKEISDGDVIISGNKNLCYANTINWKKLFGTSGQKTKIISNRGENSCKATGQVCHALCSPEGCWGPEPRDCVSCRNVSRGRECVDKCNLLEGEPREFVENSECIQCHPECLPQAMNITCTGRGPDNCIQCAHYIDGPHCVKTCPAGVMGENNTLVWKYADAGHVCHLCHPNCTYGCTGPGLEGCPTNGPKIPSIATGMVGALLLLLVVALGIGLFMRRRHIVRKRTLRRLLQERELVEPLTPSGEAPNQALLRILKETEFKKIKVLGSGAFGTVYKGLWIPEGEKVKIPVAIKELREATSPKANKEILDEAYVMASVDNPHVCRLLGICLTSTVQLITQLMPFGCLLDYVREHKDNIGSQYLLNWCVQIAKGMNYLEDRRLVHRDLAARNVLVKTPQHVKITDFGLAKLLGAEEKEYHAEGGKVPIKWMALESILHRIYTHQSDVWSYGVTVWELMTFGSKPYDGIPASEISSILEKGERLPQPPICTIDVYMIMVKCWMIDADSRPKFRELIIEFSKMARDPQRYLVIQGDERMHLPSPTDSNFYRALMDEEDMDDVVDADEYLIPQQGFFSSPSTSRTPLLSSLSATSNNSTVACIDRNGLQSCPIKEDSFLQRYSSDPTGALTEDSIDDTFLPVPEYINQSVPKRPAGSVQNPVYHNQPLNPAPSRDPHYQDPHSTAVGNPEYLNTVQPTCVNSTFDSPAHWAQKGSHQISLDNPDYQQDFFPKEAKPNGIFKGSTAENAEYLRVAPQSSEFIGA

Consider `O=P1(N(CCCl)CCCl)NCCCO1` (stereo not shown) [CTX], for which, in the assay with mice injected with CTX, the T-lymphocyte percentage turned out to be 25.6 ± 2.51%.

On to `N#CC(C#N)=Cc1cc(O)c(O)c(O)c1` [tyrphostin 25], for which the inhibition rate result in assay [1] (Results 1, positive control, 2.5 mM) is “Positive control: 2.5 mM tyrphostin 25, inhibition rate: 100%”; in assay [1] (Results 2, positive control, 0.25 mM), “Positive control: 0.25 mM tyrphostin 25, inhibition rate: 86.1%”; in assay [1] (Results 3, positive control, 0.25 mM), “Positive control: 0.25 mM tyrphostin 25, inhibition rate: 80.5%”.

The record behind these values is patent publication US6893642B1, “Algae protein polysaccharide extraction and use thereof” (priority 1999, dated 2005).
